Source: US20260256792A1, “TREATMENT OF CHRONIC SPONTANEOUS URTICARIA BY ADMINISTERING (R)-2-[3-[4-AMINO-3-(2-FLUORO-4-PHENOXY-PHENYL)PYRAZOLO[3,4-D]PYRIMIDIN-1-YL]PIPERIDINE-1-CARBONYL]-4-METHYL-4-[4-(OXETAN-3-YL)PIPERAZIN-1-YL]PENT-2-ENENITRILE” (priority 2023, published 2026)

System: moderate-to-severe chronic spontaneous urticaria (CSU)
Assay: Phase 2 CSU study: urticaria activity score over 7 days (UAS7)
Format: in vivo, human
Set-up: key to UAS7 Median / UAS7 Change from baseline Median / UAS7 change from baseline, Q1 / UAS7 change from baseline, Q3 / UAS7 change from baseline, Max / UAS7 Change from baseline LS Mean (SE): UAS7 points; daily UAS score ranges 0–6 points/day, over 7 days
Excerpt: The study comprises a 12 week, randomized, double-blind, placebo-controlled, multi-center, dose-ranging efficacy and safety phase, followed by a 40 week open label extension (OLE) phase (see FIG. 1). The study consists of three phases and an optional OLE phase. […] Clinically, CSU is characterized by the spontaneous and recurrent appearance of pruritic hives. The proposed primary endpoints were the UAS7 at Week 12 in EU and EU reference countries and the ISS7 in the US. Regardless of where a participant was from, all assessments were the same. The UAS7 score is a composite score containing both the HSS7 and the ISS7. This allowed a global assessment of the two key components of urticaria: hives and itch. […] The UAS is a validated PRO measure. […] The daily UAS scores range from 0 to 6 point/day. […] Patients were to complete the UAS using the e-diary. […] The following secondary endpoints were to be analyzed using the same approach as for the primary endpoint: • Change from baseline in UAS7 at Week 4 • Change from baseline in UAS7 at Week 12 (for US and US reference countries) • Change from baseline in ISS7 at Week 12 (except US and US reference countries) • Change from baseline in HSS7 at Week 12 The following responder secondary endpoints were to be analyzed using the Cochran-Mantel-Haenszel test adjusted by region: • Proportion of participants with UAS7<6 at Week 12 • Proportion of participants with UAS7=0 at Week 12 Participants who received selected prohibited medications and/or rescue medications were to be considered as non-responders for time points after the medication usage. For other participants, all available data including those collected during the off-treatment period were to be used to determine the responder/non-responder status. Missing data were to be considered as non-responders.

[1] = Week 4, 400 mg TID, omalizumab-naive participants
[2] = Week 5, 400 mg BID, ITT population
[3] = Week 5, 400 mg BID, Omalizumab-Naïve
[4] = Week 5, 400 mg BID, Prior Omalizumab Use
[5] = Week 5, 400 mg BID, omalizumab-naive participants
[6] = Week 5, 400 mg QPM, ITT population
[7] = Week 5, 400 mg QPM, Omalizumab-Naïve
[8] = Week 5, 400 mg QPM, Prior Omalizumab Use
[9] = Week 5, 400 mg QPM, omalizumab-naive participants
[10] = Week 5, 400 mg TID, ITT population
[11] = Week 5, 400 mg TID, Omalizumab-Naïve
[12] = Week 5, 400 mg TID, Prior Omalizumab Use
[13] = Week 5, 400 mg TID, omalizumab-naive participants

CC(C)(C=C(C#N)C(=O)N1CCC[C@@H](n2nc(-c3ccc(Oc4ccccc4)cc3F)c3c(N)ncnc32)C1)N1CCN(C2COC2)CC1 [rilzabrutinib, (R)-2-[3-[4-amino-3-(2-fluoro-4-phenoxy-phenyl)pyrazolo[3,4-d]pyrimidin-1-yl]piperidine-1-carbonyl]-4-methyl-4-[4-(oxetan-3-yl)piperazin-1-yl]pent-2-enenitrile]
UAS7 Percent change from baseline Median (Week 4, 400 mg TID, Prior Omalizumab Use): −68.48%
Non-responder, UAS7 reduction from baseline of 10 points or more [1]: 11 (31.4) n (%)
OR for rilzabrutinib vs. placebo, UAS7 reduction of 10 points or more [1]: 3.855
RRD (%) for rilzabrutinib vs. placebo, UAS7 reduction of 10 points or more [1]: 31.2 %
Responder, UAS7 reduction from baseline of 10 points or more [1]: 24 (68.6) n (%)
Non-responder, UAS7 reduction from baseline of 10 points or more [2]: 19 (46.3) n (%)
OR for rilzabrutinib vs. placebo, UAS7 reduction of 10 points or more [2]: 1.238
RRD (%) for rilzabrutinib vs. placebo, UAS7 reduction of 10 points or more [2]: 5.2 %
Responder, UAS7 reduction from baseline of 10 points or more [2]: 22 (53.7) n (%)
UAS7 Change from baseline Mean (SD) [3]: −12.56 (11.55)
UAS7 Change from baseline Median [3]: −12.67
UAS7 Mean (SD) [3]: 17.22 (13.36)
UAS7 Median [3]: 16.50
UAS7 Percent change from baseline Mean (SD) [3]: −44.07 (39.75) %
UAS7 Percent change from baseline Median [3]: −40.89%
UAS7 Change from baseline Mean (SD) [4]: −25.00 (18.42)
UAS7 Change from baseline Median [4]: −29.00
UAS7 Mean (SD) [4]: 9.75 (16.94)
UAS7 Median [4]: 2.00
UAS7 Percent change from baseline Mean (SD) [4]: −71.30 (48.04) %
UAS7 Percent change from baseline Median [4]: −92.59%
Non-responder, UAS7 reduction from baseline of 10 points or more [5]: 16 (45.7) n (%)
OR for rilzabrutinib vs. placebo, UAS7 reduction of 10 points or more [5]: 1.329
RRD (%) for rilzabrutinib vs. placebo, UAS7 reduction of 10 points or more [5]: 7.0 %
Responder, UAS7 reduction from baseline of 10 points or more [5]: 19 (54.3) n (%)
Non-responder, UAS7 reduction from baseline of 10 points or more [6]: 21 (55.3) n (%)
OR for rilzabrutinib vs. placebo, UAS7 reduction of 10 points or more [6]: 0.950
RRD (%) for rilzabrutinib vs. placebo, UAS7 reduction of 10 points or more [6]: −1.3 %
Responder, UAS7 reduction from baseline of 10 points or more [6]: 17 (44.7) n (%)
UAS7 Change from baseline Mean (SD) [7]: −10.65 (9.52)
UAS7 Change from baseline Median [7]: −8.50
UAS7 Mean (SD) [7]: 20.63 (9.18)
UAS7 Median [7]: 18.63
UAS7 Percent change from baseline Mean (SD) [7]: −32.46 (26.63) %
UAS7 Percent change from baseline Median [7]: −27.86%
UAS7 Change from baseline Mean (SD) [8]: −22.00 (NC)
UAS7 Change from baseline Median [8]: −22.00
UAS7 Mean (SD) [8]: 19.00 (NC)
UAS7 Median [8]: 19.00
UAS7 Percent change from baseline Mean (SD) [8]: −53.66 (NC) %
UAS7 Percent change from baseline Median [8]: −53.66%
Non-responder, UAS7 reduction from baseline of 10 points or more [9]: 21 (56.8) n (%)
OR for rilzabrutinib vs. placebo, UAS7 reduction of 10 points or more [9]: 0.877
RRD (%) for rilzabrutinib vs. placebo, UAS7 reduction of 10 points or more [9]: −3.4 %
Responder, UAS7 reduction from baseline of 10 points or more [9]: 16 (43.2) n (%)
Non-responder, UAS7 reduction from baseline of 10 points or more [10]: 12 (29.3) n (%)
OR for rilzabrutinib vs. placebo, UAS7 reduction of 10 points or more [10]: 2.703
RRD (%) for rilzabrutinib vs. placebo, UAS7 reduction of 10 points or more [10]: 23.5 %
Responder, UAS7 reduction from baseline of 10 points or more [10]: 29 (70.7) n (%)
UAS7 Change from baseline Mean (SD) [11]: −16.74 (11.67)
UAS7 Change from baseline Median [11]: −15.17
UAS7 Mean (SD) [11]: 13.41 (10.60)
UAS7 Median [11]: 14.00
UAS7 Percent change from baseline Mean (SD) [11]: −54.42 (33.80) %
UAS7 Percent change from baseline Median [11]: −50.00%
UAS7 Change from baseline Mean (SD) [12]: −24.11 (14.81)
UAS7 Change from baseline Median [12]: −20.50
UAS7 Mean (SD) [12]: 8.92 (10.94)
UAS7 Median [12]: 5.50
UAS7 Percent change from baseline Mean (SD) [12]: −70.71 (27.72) %
UAS7 Percent change from baseline Median [12]: −73.90%
Non-responder, UAS7 reduction from baseline of 10 points or more [13]: 11 (31.4) n (%)
OR for rilzabrutinib vs. placebo, UAS7 reduction of 10 points or more [13]: 2.512
RRD (%) for rilzabrutinib vs. placebo, UAS7 reduction of 10 points or more [13]: 22.4 %
Responder, UAS7 reduction from baseline of 10 points or more [13]: 24 (68.6) n (%)
Non-responder, UAS7 reduction from baseline of 10 points or more (Week 6, 400 mg BID, ITT population): 20 (48.8) n (%)
